Data reported in patent US20240166660A1, “KRAS G12C INHIBITORS” (BeiGene Switzerland GmbH, priority 2021, published 2024).
pIC50: −log10 of the molar value.

Target: KRAS (aa 1-169) G12C, C51S, C80L, C118S (Homo sapiens (Human), UniProt P01116, C118S/C51S/C80L/G12C)
Test: Biochemical functional assay: SOS1-mediated nucleotide exchange of GDP-loaded KRAS G12C, binding to GST-cRaf RBD, FRET readout
Details: 3 hrs pre-incubation with compound at 24° C., SOS1, GTPyS; for IC50: bound in uM; for pIC50: inhibition of nucleotide exchange
Procedure: Biochemical Functional Assay
The KRAS (aa 1-169) G12C, C51S, C80L, C118S with a His-tag was expressed, purified and loaded with GDP in house. All protein and substrate solutions were prepared in assay buffer containing 25 mM HEPES pH7.5, 10 mM MgCl2, and 0.01% Triton X-100. Purified GDP-loaded KRAS (aa 1-169) G12C, C51S, C80L, C118S protein was pre-incubated with a serially diluted compound at 24° C. for 3 hrs. Purified SOS1 (aa 564-1049) protein, GTPyS (Sigma) and GST-cRaf RBD (aa 1-149) were then added to each well and incubated at 24° C. for additional 3 hrs. […] Following the incubation, Mab Anti-6HIS-T cryptate (Cisbio) and Mab Anti GST-XL665 (Cisbio) were added and further incubated at 24° C. for 3 hrs. The binding interaction between active GTPyS KRAS G12C and GST-cRaf RBD brings the Tb and XL665 into close proximity enabling an increased FRET signal (Ex337 nm, Em665 nm/620 nm). The inhibition percentage of nucleotide exchange reaction in presence of increasing concentrations of compounds was calculated based on the ratio of fluorescence at 665 nm to that at 620 nm detected on a BMG PHERAstar FSX instrument. The IC50 value of each compound was calculated from fitting the data to the four-parameter logistic model by Dotmatics.

KRAS (aa 1-169) G12C, C51S, C80L, C118S, sequence (P01116 other isoform, or with tags, fused parts or gaps G12C/C51S/C80L/C118S): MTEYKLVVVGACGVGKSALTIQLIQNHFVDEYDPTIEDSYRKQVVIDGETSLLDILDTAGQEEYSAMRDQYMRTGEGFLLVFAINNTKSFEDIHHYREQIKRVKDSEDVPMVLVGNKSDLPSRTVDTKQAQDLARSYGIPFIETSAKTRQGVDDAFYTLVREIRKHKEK

Compound	IC50 [µM]	pIC50
C=CC(=O)N1CCN(c2nc(N3CC(N(C)C)C3)nc3cc(-c4cccc(Cl)c4)c4c(c23)OCCC4)CC1 [Compound B17, 1-(4-(5-(3-chlorophenyl)-8-(3-(dimethylamino)azetidin-1-yl)-3,4-dihydro-2H-pyrano[2,3-f]quinazolin-10-yl)piperazin-1-yl)prop-2-en-1-one]	> 10	–
C=CC(=O)N1CCN(c2ncnc3cc(-c4c(O)cccc4F)c4c(c23)OCCC4)C[C@@H]1CC#N [Compound A4, 2-((2S)-1-acryloyl-4-(5-(2-fluoro-6-hydroxyphenyl)-3,4-dihydro-2H-pyrano[2,3-f]quinazolin-10-yl)piperazin-2-yl)acetonitrile]	–	7.05
C=CC(=O)N1CCN(c2ncnc3cc(-c4ccc(O)c(F)c4)c4c(c23)OCCC4)C[C@@H]1CC#N [Compound A28, (S)-2-(1-acryloyl-4-(5-(3-fluoro-4-hydroxyphenyl)-3,4-dihydro-2H-pyrano[2,3-f]quinazolin-10-yl)piperazin-2-yl)acetonitrile]	> 10	–
C=CC(=O)N1CCN(c2ncnc3cc(-c4c(C)ccc5[nH]ncc45)c4c(c23)OCC=C4)C[C@@H]1CC#N [Compound A9, 2-((2S)-1-acryloyl-4-(5-(5-methyl-1H-indazol-4-yl)-2H-pyrano[2,3-f]quinazolin-10-yl)piperazin-2-yl)acetonitrile]	–	6.66
C=C(F)C(=O)N1CCN(c2nc(OCC3C[C@@H](OC)CN3C)nc3cc(-c4cccc5cccc(Cl)c45)c4c(c23)OCCC4)C[C@@H]1CC#N (single isomer, unassigned) [Compound B96]	–	6.85
C=CC(=O)N1CCN(c2nc(OC[C@@H]3C[C@@H](F)CN3C)nc3cc(-c4cccc(F)c4F)c4c(c23)OCCC4)CC1 [Compound B14, 1-(4-(5-(2,3-difluorophenyl)-8-(((2S,4R)-4-fluoro-1-methylpyrrolidin-2-yl)methoxy)-3,4-dihydro-2H-pyrano[2,3-f]quinazolin-10-yl)piperazin-1-yl)prop-2-en-1-one]	> 10	–
C=C(F)C(=O)N1CCN(c2nc(OC[C@@H]3CCCN3C)nc3cc(-c4cccc5cccc(Cl)c45)c4c(c23)OCCC4)C[C@@H]1CC#N (single isomer, unassigned) [Compound B67]	–	8.34
C=C(F)C(=O)N1CCN(c2nc(N3CC(CC#N)(N(C)C)C3)nc3cc(-c4cccc5cccc(Cl)c45)c4ccoc4c23)C[C@@H]1CC#N [Compound B80, (S)-2-(4-(4-(8-chloronaphthalen-1-yl)-7-(3-(cyanomethyl)-3-(dimethylamino)azetidin-1-yl)furo[2,3-f]quinazolin-9-yl)-1-(2-fluoroacryloyl)piperazin-2-yl)acetonitrile]	–	6.65
C=C(F)C(=O)N1CCN(c2nc(OC[C@H]3C[C@@H](OC)CN3C)nc3cc(-c4cccc5cccc(Cl)c45)c4c(c23)OCCC4)C[C@@H]1CC#N (single isomer, unassigned) [Compound B107]	–	8.49
C=CC(=O)N1CCN(c2ncnc3cc(-c4cnc(N)cc4C(F)(F)F)c4c(c23)OCCC4)C[C@@H]1CC#N [Compound A22, (S)-2-(1-acryloyl-4-(5-(6-amino-4-(trifluoromethyl)pyridin-3-yl)-3,4-dihydro-2H-pyrano[2,3-f]quinazolin-10-yl)piperazin-2-yl)acetonitrile]	–	6.59
C=C(F)C(=O)N1CCN(c2nc(OC[C@@H]3CCCN3C)nc3cc(-c4ccc(F)c5sc(N)nc45)c4c(c23)OCCC4)C[C@@H]1CC#N [Compound B29, 2-((S)-4-(5-(2-amino-7-fluorobenzo[d]thiazol-4-yl)-8-(((S)-1-methylpyrrolidin-2-yl)methoxy)-3,4-dihydro-2H-pyrano[2,3-f]quinazolin-10-yl)-1-(2-fluoroacryloyl)piperazin-2-yl)acetonitrile]	–	8.35
C=CC(=O)N1CCN(c2nc(OC[C@@H]3CCCN3C)nc3cc(-c4c(C)cccc4Cl)c4ccoc4c23)CC1 [Compound B76, 1-(4-(4-(2-chloro-6-methylphenyl)-7-(((S)-1-methylpyrrolidin-2-yl)methoxy)furo[2,3-f]quinazolin-9-yl)piperazin-1-yl)prop-2-en-1-one]	–	6.55
C=C(F)C(=O)N1CCN(c2nc(OC[C@@H]3C[C@H]4C[C@H]4N3C)nc3cc(-c4cccc5cccc(Cl)c45)c4c(c23)OCCC4)C[C@@H]1CC#N [Compound B73, 2-((S)-4-(5-(8-chloronaphthalen-1-yl)-8-(((1R,3S,5R)-2-methyl-2-azabicyclo[3.1.0]hexan-3-yl)methoxy)-3,4-dihydro-2H-pyrano[2,3-f]quinazolin-10-yl)-1-(2-fluoroacryloyl)piperazin-2-yl)acetonitrile]	–	7.30
C=CC(=O)N1CCN(c2nc(N3CC(N(C)C)C3)nc3cc(-c4ccccc4C(F)(F)F)c4ccoc4c23)CC1 [Compound B83, 1-(4-(7-(3-(dimethylamino)azetidin-1-yl)-4-(2-(trifluoromethyl)phenyl)furo[2,3-f]quinazolin-9-yl)piperazin-1-yl)prop-2-en-1-one]	–	5.77
C=CC(=O)N1CC2CN(c3ncnc4cc(-c5c(O)cccc5F)c5c(c34)OC(C)(C)CC5)CC2C1 (stereo not shown) [Compound A6, 1-(5-(5-(2-fluoro-6-hydroxyphenyl)-2,2-dimethyl-3,4-dihydro-2H-pyrano[2,3-f]quinazolin-10-yl)hexahydropyrrolo[3,4-c]pyrrol-2(1H)-yl)prop-2-en-1-one]	–	5.45
C=C(F)C(=O)N1CCN(c2nc(OC[C@@H]3CCCN3C)nc3cc(-c4cccc(C(F)(F)F)c4)c4ccoc4c23)C[C@@H]1CC#N [Compound B87, 2-((S)-1-(2-fluoroacryloyl)-4-(7-(((S)-1-methylpyrrolidin-2-yl)methoxy)-4-(3-(trifluoromethyl)phenyl)furo[2,3-f]quinazolin-9-yl)piperazin-2-yl)acetonitrile]	–	5.82
C=CC(=O)N1CCN(c2nc(OC[C@@H]3CCCN3C)nc3cc(-c4c(Cl)c(C)cc5[nH]ncc45)c4c(c23)OCCC4)CC1 [Compound B6, 1-(4-(5-(5-chloro-6-methyl-1H-indazol-4-yl)-8-(((S)-1-methylpyrrolidin-2-yl)methoxy)-3,4-dihydro-2H-pyrano[2,3-f]quinazolin-10-yl)piperazin-1-yl)prop-2-en-1-one]	–	7.47
C=CC(=O)N1CCN(c2ncnc3cc(-c4cccc(C)c4F)c4c(c23)OCCC4)C[C@@H]1CC#N [Compound A31, (S)-2-(1-acryloyl-4-(5-(2-fluoro-3-methylphenyl)-3,4-dihydro-2H-pyrano[2,3-f]quinazolin-10-yl)piperazin-2-yl)acetonitrile]	–	6.86
C=CC(=O)N1CCN(c2nc(OC[C@@H]3CCCN3C)nc3cc(-c4cccc5cccc(Cl)c45)c4c(c23)OCCC4)C[C@@H]1CC#N [Compound B82, 2-((S)-1-acryloyl-4-(5-(8-chloronaphthalen-1-yl)-8-(((S)-1-methylpyrrolidin-2-yl)methoxy)-3,4-dihydro-2H-pyrano[2,3-f]quinazolin-10-yl)piperazin-2-yl)acetonitrile]	–	8.21
C=C(F)C(=O)N1CCN(c2nc(N3CCCC(N(C)C)C3)nc3cc(-c4cccc5cccc(Cl)c45)c4c(c23)OCCC4)C[C@@H]1CC#N (stereo partly drawn) [Compound B74, 2-((2S)-4-(5-(8-chloronaphthalen-1-yl)-8-(3-(dimethylamino)piperidin-1-yl)-3,4-dihydro-2H-pyrano[2,3-f]quinazolin-10-yl)-1-(2-fluoroacryloyl)piperazin-2-yl)acetonitrile]	–	6.08
C=CC(=O)N1CCN(c2ncnc3cc(-c4c(C)ccc5[nH]ncc45)c4c(c23)OCCC4)C[C@@H]1CC#N [Compound A10, 2-((2S)-1-acryloyl-4-(5-(5-methyl-1H-indazol-4-yl)-3,4-dihydro-2H-pyrano[2,3-f]quinazolin-10-yl)piperazin-2-yl)acetonitrile]	–	6.22
C=CC(=O)N1CCN(c2ncnc3cc(-c4c(O)cccc4F)c4c(c23)OC(C)(C)CC4)CC1 [Compound A2, 1-(4-(5-(2-fluoro-6-hydroxyphenyl)-2,2-dimethyl-3,4-dihydro-2H-pyrano[2,3-f]quinazolin-10-yl)piperazin-1-yl)prop-2-en-1-one]	–	5.67
C=C(F)C(=O)N1CCN(c2nc(OC[C@@H]3CCCN3C)nc3cc(-c4cccc5cccc(Cl)c45)c4c(c23)OCCC4)C[C@@H]1CC#N (single isomer, unassigned) [Compound B68]	–	6.75
C=C(F)C(=O)N1CCN(c2nc(OC[C@@H]3CCCN3C)nc3cc(-c4c(Cl)c(Cl)cc5[nH]ncc45)c4c(c23)OCCC4)C[C@@H]1CC#N [Compound B36, 2-((2S)-4-(5-(5,6-dichloro-1H-indazol-4-yl)-8-(((S)-1-methylpyrrolidin-2-yl)methoxy)-3,4-dihydro-2H-pyrano[2,3-f]quinazolin-10-yl)-1-(2-fluoroacryloyl)piperazin-2-yl)acetonitrile]	–	7.33
C=CC(=O)N1CCN(c2ncnc3cc(-c4cc(F)cc5[nH]ncc45)c4c(c23)OCCC4)C[C@@H]1CC#N [Compound A16, (S)-2-(1-acryloyl-4-(5-(6-fluoro-1H-indazol-4-yl)-3,4-dihydro-2H-pyrano[2,3-f]quinazolin-10-yl)piperazin-2-yl)acetonitrile]	–	7.05
